These are literature values, as cited in publication PMC10973013, “Translational Potential of a Contrast Agent for FGS Applications in pNETs” (Molecular Imaging and Biology, 2024).

Structures are written as SMILES.

The subject of the series is lesions in ovarian cancer patients. Particulars: cytoreductive surgery, randomized phase 3. An excerpt:
The critical need for accurate tumor detection during oncologic surgery has led to the development of fluorescent contrast agents that target cancerous tissues. This technique, known as fluorescence-guided surgery (FGS), typically involves systemic administration of a fluorescent compound that contains a tumor-targeting moiety and is imaged in the near-infrared spectral range in order to maximize image contrast and diagnostic accuracy. In 2021, the folic acid analog OTL-38 (CYTALUX®) became the first clinically approved FGS agent to target tumors via an active, receptor-mediated process. ...

On to `CC1(C)C(/C=C/C2=C(Oc3ccc(C[C@H](NC(=O)c4ccc(NCc5cnc6nc(N)[nH]c(=O)c6n5)cc4)C(=O)[O-])cc3)C(=C/C=C3\N(CCCCS(=O)(=O)[O-])c4ccc(S(=O)(=O)[O-])cc4C3(C)C)/CCC2)=[N+](CCCCS(=O)(=O)[O-])c2ccc(S(=O)(=O)[O-])cc21.[H+].[H+].[H+].[H+]` [OTL-38], for which the “identification of lesions with FGS versus standard-of-care methods” value was “more effectively identified with FGS than with standard-of-care methods”.
